Measured values published in patent US20240182862A1, “METHOD FOR PRODUCING MESENCHYMAL STEM CELLS” (AJINOMOTO CO., INC., priority 2021, published 2024).

Key:
[1] = system: iNCC (iPS cell-derived neural crest cell); assay: Differentiation induction from iNCC into iMSC, surface antigen analysis using FACS; type: cell-based, human
Protocol: The obtained iNCCs (iPSC-derived NCCs) were seeded at a density of 5.0×10^3 cells/well into a 6-well plate coated with vitronectin-N (Thermo Fisher Scientific) at a density of 1.5 μg/cm^2 and cultured under 37° C., 5% CO2 conditions for […] using the following differentiation medium (T3 medium) to induce iMSCs (iPSC-derived MSCs).
T3 medium: StemFit (registered trademark) For Mesenchymal Stem Cells (Ajinomoto Co., Inc.), 90 nM Dexamethasone (Sigma-Aldrich) […]
iMSC was induced according to Example 1, except that 100 nM Dexamethasone, 100 nM betamethasone, 100 nM predonisolone, 666 nM predonisolone were used.
Regarding the induced iMSC, surface antigen analysis of 4 types of MSC positive markers (CD90, CD44, CD73, CD105), 1 type of NCC positive marker (MSC micro-positive marker) (CD271), and two types of MSC negative markers (CD45 and CD34) was performed using FACS.

[2] = system: TSG-6 (TNFAIP6); assay: Gene expression of TSG-6 (TNFAIP6) after IFNγ stimulation, Real-Time PCR; type: cell-based, human; settings: iMSC induced by adding 50 nM to 10 μM Dexamethasone, 18 days; 50 ng/mL IFNγ for 48 hr; FIG. 3
Protocol: iNCCs were seeded at a density of 5.0×10^3 cells/well into a 6-well plate coated with vitronectin-N at a density of 1.5 μg/cm^2, and cultured under 37° C., 5% CO2 conditions for 16 days using T3 medium to induce iMSCs.
After 16 days from the start of induction, 50 ng/mL IFNγ (R&D Systems) was added to T3 medium to stimulate for 48 hr. After stimulation, RNA was purified according to the protocol of PureLink (trademark) RNA Mini Kit (Thermo Fisher Scientific) and, after reverse transcription, gene expression of TSG-6 (TNFAIP6), a therapeutic marker for inflammatory diseases, was analyzed using Real-Time PCR. As comparison targets, iNCC-derived iMSC induced to differentiate in αMEM medium containing 10% FBS, and two lots of living bone marrow-derived MSC (BMMSC) (Lonza or RoosterBio) cultured in T3 medium for 12 to 16 days were used (Table 2).
iNCCs were seeded at a density of 3.0×10^4 cells/well into a 6-well plate coated with vitronectin-N at a density of 1.5 μg/cm^2, and cultured under 37° C., 5% CO2 conditions using StemFit (registered trademark) For Mesenchymal Stem Cells supplemented with 50 nM, 100 nM, 1 μM, 10 μM, 50 μM Dexamethasone to induce iMSCs. […] After stimulation, RNA was purified and, after reverse transcription, gene expression of TNFAIP6 was analyzed using Real-Time PCR.

[3] = system: iNCC; assay: Cell proliferation curve during differentiation induction; type: cell-based, human; settings: group added with 50 μM; FIG. 2
[4] = Titer of corticosteroid as glucocorticoid; settings: titer as glucocorticoid taken for the converted concentrations of the Examples
[5] = when hydrocortisone is set to 1; cited from earlier work
[6] = system: LX-2 Human Hepatic Stellate Cell Line; assay: Antifibrotic action of secretome: RT-PCR of fibrosis marker genes COL1A1 and ACTA2 in LX-2 cells; type: cell-based; settings: effect of TGF-β1 stimulation itself (10 ng/mL)
Protocol: LX-2 Human Hepatic Stellate Cell Line (EDM Millipore, hereinafter LX-2 cells) was cultured in a DMEM high Glucose (Life Technologies) medium supplemented with 10% FBS (Gibco), 1% penicillin-streptomycin (Nacalai), and 2 mM Glutamine (Gibco). On the fourth passage, 4×10^4 cells were seeded into each well of a 12-well plate. After 2 days of culture, the medium was replaced with a medium in which concentrated secretome obtained from iMSC was added at a concentration of 1× to a medium supplemented with 10 ng/mL TGF-β1 (Peprotech), and the culture was continued. On the second day after replacing the medium, cells were detached with Accutase (Thermo Fisher), and after collection, RNA was extracted and purified using Maxwell (registered trademark) 16 LEV simplyRNA Purification Kits (Promega), and reverse transcription was performed using PrimeScript™ RT Master Mix (Takara). RT-PCR was performed on the synthesized cDNA using the primers of TaqMan (registered trademark) Gene Expression Assays shown in Table 5.

[7] = StemFit For MSC + 100 nM corticosteroid
[8] = StemFit For MSC + 666 nM corticosteroid

| Compound | CD34 (MSC negative marker) FACS [1, 7] | CD44 (MSC positive marker) FACS [1, 7] | CD45 (MSC negative marker) FACS [1, 7] | CD73 (MSC positive marker) FACS [1, 7] | CD90 (MSC positive marker) FACS [1, 7] | CD105 (MSC positive marker) FACS [1, 7] | CD271 (NCC positive, MSC micro-positive marker) FACS [1, 7] | titer of corticosteroid as glucocorticoid [5] | further results |
| --- | --- | --- | --- | --- | --- | --- | --- | --- | --- |
| C[C@H]1C[C@H]2[C@@H]3CCC4=CC(=O)C=C[C@]4(C)[C@@]3(F)[C@@H](O)C[C@]2(C)[C@@]1(O)C(=O)CO [Betamethasone] | 8.12% | 99.60% | 0.88% | 97.86% | 98.96% | 95.34% | 34.14% |  |  |
| C[C@@H]1C[C@H]2[C@@H]3CCC4=CC(=O)C=C[C@]4(C)[C@@]3(F)[C@@H](O)C[C@]2(C)[C@@]1(O)C(=O)CO [Dexamethasone, Pregna-1,4-diene-3,20-dione,9-fluoro-11,17,21-trihydroxy-16-methyl-, (11β,16α)-] | 10.52% | 99.26% | 0.64% | 97.82% | 99.22% | 96.36% | 23.42% |  | gene expression of TSG-6 by IFNγ stimulation [2]: significantly increased; proliferation of cells during differentiation induction [3]: stopped after day 13; titer used to convert concentrations [4]: 26.66 |
| C[C@]12C=CC(=O)C=C1CC[C@@H]1[C@@H]2[C@@H](O)C[C@@]2(C)[C@H]1CC[C@]2(O)C(=O)CO [Prednisolone] | 9.22% | 99.60% | 0.56% | 96.38% | 98.99% | 93.32% | 56.94% | 4 | effect in promoting differentiation ([1]; 666 nM, titer as glycocorticoid aligned): effective in promoting differentiation; CD34 (MSC negative marker) FACS [1, 8]: 9.86%; CD44 (MSC positive marker) FACS [1, 8]: 99.70%; CD45 (MSC negative marker) FACS [1, 8]: 0.88%; CD73 (MSC positive marker) FACS [1, 8]: 97.38%; CD90 (MSC positive marker) FACS [1, 8]: 99.18%; CD105 (MSC positive marker) FACS [1, 8]: 95.28%; CD271 (NCC positive, MSC micro-positive marker) FACS [1, 8]: 41.02%; effect in promoting differentiation ([1]; added at 100 nM): limited effect; titer used to convert concentrations [4]: 4 |
| C[C@]12CCC(=O)C=C1CC[C@@H]1[C@@H]2C(=O)C[C@@]2(C)[C@H]1CC[C@]2(O)C(=O)CO [cortisone] |  |  |  |  |  |  |  | 0.8 |  |
| C[C@@H]1C[C@H]2[C@@H]3C[C@H](F)C4=CC(=O)C=C[C@]4(C)[C@H]3[C@@H](O)C[C@]2(C)[C@@]1(O)C(=O)CO [paramethasone] |  |  |  |  |  |  |  | 10 |  |
| C[C@]12C=CC(=O)C=C1CC[C@H]1[C@@H]3C[C@@H](O)[C@](O)(C(=O)CO)[C@@]3(C)C[C@H](O)[C@@]12F [triamcinolone] |  |  |  |  |  |  |  | 5 |  |
| TGF-β1: TGF-β1 (Peprotech), 10 ng/mL stimulus of LX-2 cells |  |  |  |  |  |  |  |  | ACTA2 expression [6]: markedly increased; COL1A1 expression [6]: markedly increased |
